Reference: article PMC8151276, “An Integrated Approach toward NanoBRET Tracers for Analysis of GPCR Ligand Engagement” (Molecules, 2021)

Assays:
Type in all cases: binding
ADRA2C = biological target: T1, ADRA2C (Homo sapiens, UniProt P18825); experiment: NanoBRET screen HiBiT-ADRA2C in HEK293
T1 construct: purchased Promega (in-house HiBiT-GPCR construct library, NanoBRET)
T1 sequence (P18825 1-462): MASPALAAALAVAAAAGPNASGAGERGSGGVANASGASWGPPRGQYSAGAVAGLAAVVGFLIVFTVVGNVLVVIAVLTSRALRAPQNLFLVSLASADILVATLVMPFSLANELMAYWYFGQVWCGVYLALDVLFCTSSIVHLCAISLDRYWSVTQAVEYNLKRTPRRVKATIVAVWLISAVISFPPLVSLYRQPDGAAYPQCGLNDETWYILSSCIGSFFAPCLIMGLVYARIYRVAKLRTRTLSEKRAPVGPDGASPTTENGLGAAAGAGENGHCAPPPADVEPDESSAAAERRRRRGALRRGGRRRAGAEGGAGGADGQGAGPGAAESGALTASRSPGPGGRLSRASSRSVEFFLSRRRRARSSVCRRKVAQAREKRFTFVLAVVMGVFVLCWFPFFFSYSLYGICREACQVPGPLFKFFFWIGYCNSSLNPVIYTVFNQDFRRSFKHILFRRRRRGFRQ
Procedure: (§1) Each tracer candidate was screened across the entire library of HiBiT-GPCR constructs using NanoBRET as the detection modality. As depicted in Figure 4A, the specificity of interactions was evaluated through decrease in BRET due to competitive displacement of a bound tracer by excess parental compound. Each tracer was analyzed for binding to each HiBiT-GPCR fusion in the absence and in the presence of competing parental compound. Briefly, HEK293 cells were transfected with HiBiT-GPCR constructs diluted into promoterless DNA to reduce expression and maximize translocation to the cell surface. Each tracer candidate was then screened at concentrations of 1 μM and 0.1 μM across cells expressing these fusions. Cells were treated for 1.5 h with tracer either alone or in the presence of 20 μM competing parental compound (i.e., control). BRET was measured upon addition of purified LgBiT and subsequent complementation with HiBiT genetically fused to a GPCR. The specificity of interactions was assessed through a decrease in BRET signal due to competitive displacement of the bound tracer. To further gauge the robustness of these interactions, the fold response over the control (i.e., BRETtracer/BRETcontrol) was calculated. We chose a 1.5-fold response, which translates to ≥7-fold signal over noise as the minimal threshold required to score an interaction as positive. […]. Below we highlight the screening results obtained for our exemplary fluorescent tracers based on Clozapine, Amitriptyline and AZD1283.
(§2) HiBiT-GPCR DNA constructs were diluted in 10 mM Tris pH 8 to a final concentration of 0.01 μg/μL, arrayed in 96-well plates and stored at −20 °C. For transfection, HEK293 cells were suspended in Opti-MEM (without phenol red) supplemented with 2% fetal bovine serum (Seradigm) and 100 units/mL penicillin–streptomycin (Gibco) at a final concentration of 220,000 cells/mL and dispensed into white 96-well plates at 90 μL/well. Subsequent transfections and screens were carried using an Agilent Bravo Automated Liquid Handling Platform. First, the 96-well HiBiT DNA arrays were diluted 25-fold in Opti-MEM (without serum or phenol red) to a final concentration of 0.0004 μg/μL and 20 μL of the diluted DNAs were transferred into new 96-well plates. Next, promoterless carrier DNA (1 μg/μL) was diluted 25-fold (0.04 μg/μL) and then dispensed into the diluted arrays at 20 μL/well. Following brief mixing, Viafect transfection reagent (Promega) diluted 16-fold into Opti-MEM was dispensed into the plates at 40 μL/well. After mixing by pipetting, plates were incubated for 10 min on the pipetting station deck. The DNA-transfection reagent complexes were then added to plates containing cells. To facilitate the screen, 10 μL of DNA-transfection reagent complexes were added in duplicates to the top 4 and bottom 4 rows, resulting in two identical 48-well arrays per plate. Plates with transfected cells were incubated for 18–20 h at 37 °C/5% CO2. A screen of each tracer across the entire library using two different concentrations requires duplicate plates of transfected cells. Depending on the number of tracers being screened, transfections can be scaled up using the same ratios. The next day, for each tracer, four 20× screening solutions in tracer dilution buffer (Promega) were prepared: two duplicates at final concentration of 20 μM and two duplicates at a final concentration of 2 μM. A competing unmodified compound was added to one of each duplicate at a final concentration of 400 μM. The four resulting solutions were diluted 4-fold in Opti-MEM without serum or phenol red to generate 5× solutions (5 µM and 0.5 µM tracer +/− 100 μM competing compound). To screen the library, a BioTek MultiFlo FX liquid dispenser was used to dispense 22.5 µL of tracer solution to the top 4 rows and 22.5 µL tracer + competing compound solution to the 4 bottom rows. Plates were briefly mixed on an orbital shaker and incubated for 1.5 h at room temperature. […]

CXCR2 = biological target: T2, CXCR2 (Homo sapiens, UniProt P25025); experiment: NanoBRET screen HiBiT-CXCR2 in HEK293
T2 construct: purchased Promega (in-house HiBiT-GPCR construct library, NanoBRET)
T2 sequence (P25025 1-360): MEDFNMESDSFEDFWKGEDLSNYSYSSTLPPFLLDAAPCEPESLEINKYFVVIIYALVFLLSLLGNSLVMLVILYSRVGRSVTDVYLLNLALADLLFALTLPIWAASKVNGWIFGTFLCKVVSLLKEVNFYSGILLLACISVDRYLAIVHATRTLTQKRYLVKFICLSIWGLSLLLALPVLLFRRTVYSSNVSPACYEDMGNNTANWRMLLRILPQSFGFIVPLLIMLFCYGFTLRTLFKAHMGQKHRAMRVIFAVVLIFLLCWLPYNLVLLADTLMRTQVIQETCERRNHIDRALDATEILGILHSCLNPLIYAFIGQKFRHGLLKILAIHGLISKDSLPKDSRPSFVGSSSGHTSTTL
Procedure: as §1, §2

P2RY2 = biological target: T3, P2RY2 (Homo sapiens, UniProt P41231); experiment: NanoBRET screen HiBiT-P2RY2 in HEK293
T3 construct: purchased Promega (in-house HiBiT-GPCR construct library, NanoBRET)
Procedure: as §1, §2

[1] = tracer at 0.1μM, listed as amitriptyline-b-2-NB590
[2] = tracer at 1μM, listed as amitriptyline-b-2-NB590

T3 sequence (P41231 whole entry): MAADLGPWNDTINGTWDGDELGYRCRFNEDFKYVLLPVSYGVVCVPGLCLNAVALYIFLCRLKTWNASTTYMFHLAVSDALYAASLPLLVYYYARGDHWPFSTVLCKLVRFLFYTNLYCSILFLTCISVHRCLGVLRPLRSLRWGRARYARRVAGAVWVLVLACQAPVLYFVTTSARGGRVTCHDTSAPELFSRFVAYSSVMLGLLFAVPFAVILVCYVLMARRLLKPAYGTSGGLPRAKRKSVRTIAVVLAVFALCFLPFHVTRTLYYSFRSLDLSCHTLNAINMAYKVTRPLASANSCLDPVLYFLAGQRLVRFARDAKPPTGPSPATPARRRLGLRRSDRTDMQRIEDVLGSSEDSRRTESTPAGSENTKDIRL

CCOC(=O)c1cc(C#N)c(N2CCC(C(=O)NS(=O)(=O)Cc3ccccc3/C=C/C(=O)NCCNC(=O)CCc3ccc4n3[B-](F)(F)[N+]3=C(c5ccc[nH]5)C=CC3=C4)CC2)nc1C [AZD1283-1-NB590]
NanoBRET Fold Response (ADRA2C; ADRA2C, 0.1μM): 1.05 | NanoBRET Fold Response (ADRA2C; ADRA2C, 1μM): 1.04 | NanoBRET Fold Response (CXCR2; CXCR2, 0.1μM): 0.99 | NanoBRET Fold Response (CXCR2; CXCR2, 1μM): 1.03 | NanoBRET Fold Response (P2RY2; P2RY2, 0.1μM): 1.08 | NanoBRET Fold Response (P2RY2; P2RY2, 1μM): 1.12

N#CN/C(=N\CCNC(=O)c1ccc(N)cc1)NCCCOc1cccc(CN2CCCCC2)c1 [Aminopotentidine (unmodified)]
NanoBRET Fold Response (ADRA2C; ADRA2C, other tracers/Aminopotentidine (unmodified), 0.1μM): 1.06 | NanoBRET Fold Response (ADRA2C; ADRA2C, other tracers/Aminopotentidine (unmodified), 1μM): 1.11

N#CN=C(NCCCOc1cccc(CN2CCCCC2)c1)NCCNC(=O)CCOCCOCCOCCOCCNC(=O)CCc1ccc2n1[B-](F)(F)[N+]1=C(c3ccc[nH]3)C=CC1=C2 [Aminopotentidine-2-NB590]
NanoBRET Fold Response (ADRA2C; ADRA2C, tracer 0.1μM): 1.35 | NanoBRET Fold Response (ADRA2C; ADRA2C, tracer 1μM): 1.25 | NanoBRET Fold Response (CXCR2; CXCR2, tracer 0.1μM): 0.90 | NanoBRET Fold Response (CXCR2; CXCR2, tracer 1μM): 0.95 | NanoBRET Fold Response (P2RY2; P2RY2, tracer 0.1μM): 1.01 | NanoBRET Fold Response (P2RY2; P2RY2, tracer 1μM): 1.00

CN(C)CCC=C1c2ccccc2CCc2ccc(C(=O)NCCNC(=O)CCOCCOCCOCCOCCNC(=O)CCc3ccc4n3[B-](F)(F)[N+]3=C(c5ccc[nH]5)C=CC3=C4)cc21 [Amitriptyline-a-2-NB590]
NanoBRET Fold Response (ADRA2C; tracer at 1μM): 1.37 | NanoBRET Fold Response (CXCR2; tracer at 0.1μM): 0.99 | NanoBRET Fold Response (CXCR2; tracer at 1μM): 1.00 | NanoBRET Fold Response (P2RY2; tracer at 0.1μM): 1.00 | NanoBRET Fold Response (P2RY2; tracer at 1μM): 1.05

CN(C)CCC=C1c2ccccc2CCc2ccc(C(=O)NCCNC(=O)CCOCCOCCOCCOCCNC(=O)CCc3ccc4n3[B-](F)(F)[N+]3=C(c5ccc[nH]5)C=CC3=C4)cc21 [Amitriptyline-b-2-NB590]
NanoBRET Fold Response (ADRA2C; [1]): 1.08 | NanoBRET Fold Response (ADRA2C; [2]): 1.08 | NanoBRET Fold Response (CXCR2; [1]): 0.97 | NanoBRET Fold Response (CXCR2; [2]): 0.83 | NanoBRET Fold Response (P2RY2; [1]): 1.04 | NanoBRET Fold Response (P2RY2; [2]): 0.92

CN(CCC=C1c2ccccc2CCc2ccccc21)C(=O)CCOCCOCCOCCOCCNC(=O)CCc1ccc2n1[B-](F)(F)[N+]1=C(c3ccc[nH]3)C=CC1=C2 [Amitriptyline-e-2-NB590]
NanoBRET Fold Response (ADRA2C; tracer at 1μM): 1.00 | NanoBRET Fold Response (CXCR2; tracer at 1μM): 1.07 | NanoBRET Fold Response (P2RY2; tracer at 1μM): 0.98

COc1ccc2c(n1)c(CCNC(C)=O)cn2CCNC(=O)CCc1ccc2n1[B-](F)(F)[N+]1=C(c3ccc[nH]3)C=CC1=C2 [Azamelatonin-1-NB590]
NanoBRET Fold Response (ADRA2C; 0.1μM tracer): 1.01 | NanoBRET Fold Response (ADRA2C; 1μM tracer): 0.79 | NanoBRET Fold Response (CXCR2; 0.1μM tracer): 0.97 | NanoBRET Fold Response (CXCR2; 1μM tracer): 0.98 | NanoBRET Fold Response (P2RY2; 0.1μM tracer): 0.93 | NanoBRET Fold Response (P2RY2; 1μM tracer): 0.93
